Assay results published in US12404283B2, “c-MYC mRNA translation modulators and uses thereof in the treatment of cancer” (Anima Biotech Inc., priority 2022, dated 2025).
Structures can show the parent of a compound that is named as a salt.

System: c-Myc
Assay: c-Myc immunofluorescence assay
Format: cell-based, human
Settings: A549 cells, 24 hours treatment, anti-c-Myc immunofluorescence
How it was run: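 High-content imaging (20×) of PFA-fixed A549 cells immunostained for c-Myc with DAPI nuclei, after 24 h compound treatment at increasing concentrations. Per-cell c-Myc signal in identified cell regions was plotted against dose and fitted by logistic regression to give EC50.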

SMILES	Myc Efficacy (−LogEC50)
O=C(NCCCN1CCC(F)CC1)c1ccc2c(c1)sc1nc(-c3ccc(C4CCNCC4)cc3F)cn12 [Compound 508, 2-(2-fluoro-4-(piperidin-4-yl)phenyl)-N-(3-(4-fluoropiperidin-1-yl)propyl)benzo[d]imidazo[2,1-b]thiazole-7-carboxamide]	+++ (+++ ≥6)
CC[C@@H](CO)NC(=O)c1ccc2c(c1)sc1nc(-c3ccc(C(=O)NC)cc3)cn12 [compound 188, (S)-N-(1-hydroxybutan-2-yl)-2-(4-(methylcarbamoyl)phenyl) benzo[d]imidazo[2,1-b]thiazole-7-carboxamide]	+ (+ >3 and <5)
CCCN1CCC(NC(=O)c2ccc3c(c2)sc2nc(-c4ccc(C(=O)NC)cc4)cn23)CC1 [compound 264, 2-(4-(methylcarbamoyl)phenyl)-N-(1-propylpiperidin-4-yl)benzo[d]imidazo[2,1-b]thiazole-7-carboxamide]	+++ (+++ ≥6)
CCN(CC)CCCNC(=O)c1ccc2c(c1)sc1nc(-c3ccc(C(=O)NC4CCN(C)C4)cc3)cn12 (centres unmarked) [compound 286, N-(3-(diethylamino)propyl)-2-(4-((1-methylpyrrolidin-3-yl)carbamoyl)phenyl)benzo [d]imidazo[2,1-b]thiazole-7-carboxamide]	++ (++ ≥5 and <6)
O=C(N[C@H]1CCOC1)c1ccc2c(c1)sc1nc(-c3ccc(C4CCCN4)cc3F)cn12 (stereo partly drawn) [524S, 2-(2-fluoro-4-(pyrrolidin-2-yl)phenyl)-N-((S)-tetrahydrofuran-3-yl)benzo[d]imidazo[2,1-b]thiazole-7-carboxamide]	++ (++ ≥5 and <6)
CCN(CC)CCCNC(=O)c1ccc2c(c1)sc1nc(-c3ccccc3F)cn12 [compound 129, N-(3-(diethylamino)propyl)-2-(2-fluorophenyl)benzo[d] imidazo[2,1-b]thiazole-7-carboxamide]	++ (++ ≥5 and <6)
CCC(CNC(=O)c1ccc2c(c1)sc1nc(-c3ccc(C(=O)NC)cc3)cn12)N(C)C (centres unmarked) [compound 208, N-(2-(dimethylamino)butyl)-2-(4-(methylcarbamoyl)phenyl) benzo[d]imidazo[2,1-b]thiazole-7-carboxamide]	+ (+ >3 and <5)
CNC(=O)c1ccc(-c2cn3c(n2)sc2cc(C(=O)NC4CCN(C(=O)C5CC5)CC4)ccc23)cc1 [compound 190, N-(1-(cyclopropanecarbonyl)piperidin-4-yl)-2-(4-(methylcarbamoyl)phenyl) benzo[d]imidazo[2,1-b]thiazole-7-carboxamide]	+ (+ >3 and <5)
Cc1ccc(-c2cn3c(n2)sc2cc(C(=O)NCCN)ccc23)cc1 [compound 122, N-(2-aminoethyl)-2-(p-tolyl)benzo[d]imidazo[2,1-b]thiazole-7-carboxamide]	+ (+ >3 and <5)
CO[C@H]1CN[C@@H](c2ccc(-c3cn4c(n3)sc3cc(C(=O)NC5CCN(C)CC5)ccc34)c(F)c2)C1 (relative stereo) [Compound 532, 2-(2-fluoro-4-((cis)-4-methoxypyrrolidin-2-yl)phenyl)-N-(1-methylpiperidin-4-yl)benzo[d]imidazo[2,1-b]thiazole-7-carboxamide]	+++ (+++ ≥6)
NCc1c(F)cc(-c2cn3c(n2)sc2cc(C(=O)NCCCN4CCCCC4)ccc23)cc1Cl [compound 384, 2-(4-(aminomethyl)-3-chloro-5-fluorophenyl)-N-(3-(piperidin-1-yl)propyl)benzo[d]imidazo [2,1-b]thiazole-7-carboxamide]	++ (++ ≥5 and <6)
Cc1ccc(-c2cn3c(n2)sc2cc(C(=O)NC[C@@H]4CCNC4)ccc23)cc1 [compound 116, (R)-N-(pyrrolidin-3-ylmethyl)-2-(p-tolyl)benzo[d]imidazo [2,1-b]thiazole-7-carboxamide formate]	++ (++ ≥5 and <6)
CN1CCC(C(=O)Nc2ccc3c(c2)sc2nc(-c4ccc(C5CCCN5)cc4F)cn23)CC1 (centres unmarked) [Compound 593, N-(2-(2-fluoro-4-(pyrrolidin-2-yl)phenyl)benzo[d]imidazo[2,1-b]thiazol-7-yl)-1-methylpiperidine-4-carboxamide dihydrochloride]	+++ (+++ ≥6)
CNC(=O)c1ccc(-c2cn3c(n2)sc2cc(C(=O)NC[C@H]4CCCN(C)C4)ccc23)cc1 [compound 212, (R)-2-(4-(methylcarbamoyl)phenyl)-N-((1-methylpiperidin-3-yl)methyl)benzo[d]imidazo [2,1-b]thiazole-7-carboxamide]	+ (+ >3 and <5)
CCN(CC)CCCNC(=O)c1ccc2c(c1)sc1nc(-c3ccc(Cl)cc3)cn12 [compound 111, 2-(4-chlorophenyl)-N-(3-(diethylamino)propyl)benzo [d]imidazo[2,1-b]thiazole-7-carboxamide]	++ (++ ≥5 and <6)
CNC(=O)c1ccc(-c2cn3c(n2)sc2cc(C(=O)NCCc4cnn(C)c4)ccc23)cc1 [compound 202, N-(2-(1-methyl-1H-pyrazol-4-yl)ethyl)-2-(4-(methylcarbamoyl)phenyl) benzo[d]imidazo[2,1-b]thiazole-7-carboxamide]	− (− ≤3)
CNC(=O)c1ccc(-c2cn3c(n2)sc2cc(C(=O)NCCCN4CCNCC4)ccc23)cc1 [compound 175, 2-(4-(methylcarbamoyl)phenyl)-N-(3-(piperazin-1-yl)propyl)benzo[d]imidazo [2,1-b]thiazole-7-carboxamide]	− (− ≤3)
Cc1cccc(-c2cn3c(n2)sc2cc(C(=O)NCCCN4CCC(F)(F)CC4)ccc23)c1 [compound 133, N-(3-(4,4-difluoropiperidin-1-yl)propyl)-2-(m-tolyl)benzo[d]imidazo[2,1-b]thiazole-7-carboxamide]	++ (++ ≥5 and <6)
CCN(CC)CCCNC(=O)c1ccc2c(c1)sc1nc(-c3ccc(C(=O)NC)cc3)cn12 [compound 125, N-(3-(diethylamino)propyl)-2-(4-(methylcarbamoyl)phenyl) benzo[d]imidazo[2,1-b]thiazole-7-carboxamide]	++ (++ ≥5 and <6)
Cc1cccc(-c2cn3c(n2)sc2cc(C(=O)NCCCN4CCS(=O)(=O)CC4)ccc23)c1 [compound 135, N-(3-(1,1-dioxidothiomorpholino)propyl)-2-(m-tolyl)benzo[d]imidazo[2,1-b]thiazole-7-carboxamide]	+ (+ >3 and <5)
O=C(NC1COCOC1)c1ccc2c(c1)sc1nc(-c3ccc(C4CCCN4)cc3F)cn12 (centres unmarked) [compound 545, N-(1,3-dioxan-5-yl)-2-(2-fluoro-4-(pyrrolidin-2-yl)phenyl)benzo[d]imidazo[2,1-b]thiazole-7-carboxamide]	+++ (+++ ≥6)
Cc1cccc(-c2cn3c(n2)sc2cc(C(=O)NCCC4CCCN4)ccc23)c1 (centres unmarked) [compound 156, N-(2-(pyrrolidin-2-yl)ethyl)-2-(m-tolyl)benzo[d]imidazo[2,1-b]thiazole-7-carboxamide]	++ (++ ≥5 and <6)
CNC(=O)c1ccc(-c2cn3c(n2)sc2cc(C(=O)NC[C@H]4COCCO4)ccc23)cc1 [compound 182, (S)-N-((1,4-dioxan-2-yl)methyl)-2-(4-(methylcarbamoyl)phenyl) benzo[d]imidazo[2,1-b]thiazole-7-carboxamide]	− (− ≤3)
